Our source for the IC50, inhibition and half-life values is US20130252930A1 (BIOMARIN PHARMACEUTICAL INC., priority 2010, published 2013).

Structures are written as SMILES. pIC50: −log10 of the molar value. Read-outs that look alike come from different tables or passages of the source.

The target in series [1] is T1, CYP17 (human testicular microsome) (Homo sapiens, UniProt P05093).
T1 construct: using microsomal fraction from human testis (Celsis Cat #S00110) as the enzyme source; tissue Celsis S00110; host or cells: human testis microsomal fraction
T1 sequence (P05093 1-508): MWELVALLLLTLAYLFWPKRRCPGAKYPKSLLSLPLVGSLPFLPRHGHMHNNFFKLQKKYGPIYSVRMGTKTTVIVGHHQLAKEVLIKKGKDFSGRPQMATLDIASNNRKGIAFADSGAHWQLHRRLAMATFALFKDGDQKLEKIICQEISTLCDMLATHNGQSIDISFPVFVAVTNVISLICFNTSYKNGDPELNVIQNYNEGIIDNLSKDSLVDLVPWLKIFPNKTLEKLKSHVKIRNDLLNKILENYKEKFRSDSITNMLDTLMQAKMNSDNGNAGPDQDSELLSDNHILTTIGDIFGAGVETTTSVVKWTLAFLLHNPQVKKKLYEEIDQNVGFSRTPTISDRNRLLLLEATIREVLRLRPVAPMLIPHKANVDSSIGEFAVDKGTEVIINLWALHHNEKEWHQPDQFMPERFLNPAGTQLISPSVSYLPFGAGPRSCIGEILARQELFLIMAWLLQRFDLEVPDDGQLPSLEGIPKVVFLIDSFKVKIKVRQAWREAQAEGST
Briefly: CYP17 enzymatic assay (IC50) (Biological Example 4). Format: biochemical. The following applies: human testicular microsome.

The target of series [2] is T1, CYP17 (human testicular microsome). Briefly: CYP17 enzymatic assay (% inhibition at 10 nM), version 1 (Biological Example 5). Format: biochemical.
The target of series [3] is T2, Cyp21 enzyme (Human HEK 293-Cyp21 stable transfected cells) (Homo sapiens, UniProt P08686).
T2 construct: expressed in transfected cells
T2 sequence (P08686 1-495): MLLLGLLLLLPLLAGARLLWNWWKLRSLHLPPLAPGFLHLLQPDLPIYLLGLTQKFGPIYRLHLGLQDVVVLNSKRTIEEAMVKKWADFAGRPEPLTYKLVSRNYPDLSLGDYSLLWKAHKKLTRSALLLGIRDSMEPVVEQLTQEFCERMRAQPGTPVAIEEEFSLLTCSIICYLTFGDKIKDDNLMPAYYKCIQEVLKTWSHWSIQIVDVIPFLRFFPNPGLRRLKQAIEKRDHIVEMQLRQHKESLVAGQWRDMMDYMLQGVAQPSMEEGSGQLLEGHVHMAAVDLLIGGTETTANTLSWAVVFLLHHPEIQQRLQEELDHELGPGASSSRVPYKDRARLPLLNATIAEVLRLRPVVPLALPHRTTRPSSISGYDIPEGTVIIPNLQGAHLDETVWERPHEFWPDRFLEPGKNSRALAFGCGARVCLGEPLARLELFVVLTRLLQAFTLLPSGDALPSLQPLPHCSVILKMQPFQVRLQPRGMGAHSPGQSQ
Kind of series: CYP21-HEK293 enzymatic assay (% inhibition at 100 nM) (Biological Example 10). In kind it is cell-based. The following applies: HEK 293-Cyp21 cells. The protocol:
Proceeding using methods similar to those described in Biological Example 11, the percent inhibition at 100 nM was measured.
This assay was used to determine compound activity against Cyp21 enzyme. Human HEK 293-Cyp21 stable transfected cells (maintained in complete growth media DMEM+10% FBS, supplemented with 125 ug/mL Hygromycin) were seeded in a 96-well plate at 20,000 cells/well/100 uL in DMEM plus 10% FBS and allowed to attach overnight. The next day, 20 μL medium was carefully removed and 10 μL of 10× pre-made compounds in DMEM+10% FBS+10% methanol was transferred to the wells to final concentrations of 1000, 100, 10, 1, or 0.1 nM. Mock treatment was 1% methanol in growth media and the cells were left at 37° C., 5% CO2 for 5 hr. After the incubation, 10 μL of substrate progesterone (Sigma) was added to the wells to make a final concentration of 10 μM. The cells were incubated the cells at 37° C. for 20 hr. At the end of incubation, 90 μL of conditioned media was removed to measure DOC level by ELISA.
Preparation of the DOC ELISA: 100 μL of coating buffer (0.025M PBS pH 7.4) containing 200 ng/mL DOC-3-carboxymethyloxime-BSA (Steraloids. inc, Cat#3469-000) was added to each well of a 96-well plate and incubated overnight at 4° C. The next day, the plates were washed twice with 250 μl of wash solution (0.015M PBS pH 7.4 containing 0.05% Tween 20). After being washed, the wells were blocked with 250 μL blocking buffer (3% BSA in 0.025M PBS, pH 7.4) at 37° C. for 2 h. The plates were washed again 3 times as before, and then 90 μL of sample /standards (prepared in complete growth media) was added into the appropriate wells followed by 10 μL of antibody solution (1:450 rabbit anti-DOC in 0.6% BSA/PBS). The plates were incubated at room temperature for 2 h on a shaker. The contents of the wells were removed and the plate was washed 4 times. After the final wash, 100 μL of secondary antibody (1:12000 HRP-goat-anti-rabbit IgG conjugate 0.6% BSA/PBS) was added into each well. The plate was incubated at 30° C. for 45 min. The plate was washed again 4 times and 100 μL of TMB substrate solution was added to each well. The plate was incubated at room temperature for 10 min. 100 μL of stop solution was added to each well and the optical density was read at 450 nm.
The mean absorbance value for each sample was used to determine the corresponding concentration from the standard curve. Data was analyzed with “log(antagonist) vs response variable slope” under “non-linear regression analysis” using Prism5 software.

Series [4] deals with T1, CYP17 (human testicular microsome). Briefly: CYP17 enzymatic assay (% inhibition at 1 nM) (Biological Example 12). In kind it is biochemical.
Series [5] can be described thus: Human liver microsome stability assay (Biological Example 8b). The note with it: liver microsomes, pH 7.4. (In general: Liver microsomes are a subcellular fraction often used to study metabolism.)
Protocol: The reaction was started with addition of excess NADPH (5 mg/mL, 15 μL in 0.1 M potassium phosphate buffer, 1.0 mM EDTA, pH 7.4), the total volume is 45 μL (compound final concentration was 1 μM). […] 50 μL of the supernatant was transferred from each well into a 96-well sample plate containing 50 μL of ultra-pure water (Millipore) for LC-MS/MS analysis.
Setting [6] is: read-out: CYP17 enzymatic assay IC50 (Biological Example No. 4).
Where [7] appears, read: compound at 100 nM, read-out: CYP21-HEK293 enzymatic assay % inhibition at 100 nM (Biological Example No. 10).
Setting [8] is: compound at 1 nM, read-out: CYP17 enzymatic assay % inhibition at 1 nM (Biological Example No. 12).
Where [9] appears, read: read-out: Biological Example No. 4: CYP17 enzymatic assay IC50.
[10] abbreviates: compound at 100 nM, read-out: Biological Example No. 10: CYP21-HEK293 enzymatic assay % inhibition at 100 nM.
The mark [11] stands for this setting: DHEA by ELISA, read-out: Biological Example No. 4: CYP17 enzymatic assay IC50.
The mark [12] stands for this setting: 10 nM compound, DHEA by ELISA, read-out: Biological Example No. 5: CYP17 percent inhibition at 10 nM (version 1).
[13] abbreviates: 100 nM compound, read-out: Biological Example No. 10: CYP21-HEK293 percent inhibition at 100 nM.

For `CN1CC[C@@]2(C)C(=CC1=O)CC[C@H]1C3=CC=C(c4cnccn4)[C@@]3(C)CC[C@@H]12` [Compound 184, (5aR,7aS)-3,5a,7a-trimethyl-8-(pyrazin-2-yl)-3,4,5,5a,5b,6,7,7a,11,12-decahydrocyclopenta[5,6]naphtho[1,2-d]azepin-2(10bH)-one], the negative-log IC50 (pIC50) in series [1] (setting [6]) is above 7.96. For the same molecule, in series [2] (compound at 10 nM, read-out: CYP17 enzymatic assay % inhibition at 10 nM (Biological Example No. 5)), the inhibition at 0.01 µM was above 80%. Moreover, in series [3] (setting [7]), the inhibition at 0.1 µM was at least 30%. In addition, the inhibition at 0.001 µM in series [4] (setting [8]) fell in the range of 10 to 50%.
Regarding `CC1CC2C3=CC=C(c4cncc(N)c4)[C@@]3(C)CCC2[C@@]2(C)CCC(=O)C=C12` (stereo partly drawn) [Compound 329, (10R,13S)-17-(5-aminopyridin-3-yl)-6,10,13-trimethyl-6,7,8,9,10,11,12,13-octahydro-1H-cyclopenta[a]phenanthren-3(2H)-one], the pIC50 in series [1] (setting [9]) was above 7.96. The inhibition at 0.1 µM in series [3] (setting [10]) was below 30%.
Take `C[C@]12CCC(=O)C=C1CC[C@@H]1[C@@H]2CC[C@]2(C)C(c3cccnc3)CC[C@@H]12` (stereo partly drawn) [Compound 419, (10R,13S)-10,13-dimethyl-17-(pyridin-3-yl)-6,7,8,9,10,11,12,13,14,15,16,17-dodecahydro-1H-cyclopenta[a]phenanthren-3(2H)-one]: the inhibition at 0.1 µM in series [3] (setting [7]) is at least 30%. Also, the inhibition at 0.001 µM in series [4] (setting [8]) was 10 to 50%.
`C[C@]12CCC3C(CCC4=CC(=O)CC[C@@]43C)C1=CC=C2c1cncc(N)c1` (stereo partly drawn) [Compound 360, (10R,13S)-17-(5-aminopyridin-3-yl)-10,13-dimethyl-6,7,8,9,10,11,12,13-octahydro-1H-cyclopenta[a]phenanthren-3(2H)-one]: in series [1] (setting [9]), the pIC50 was above 7.96. Besides, the inhibition at 0.1 µM in series [3] (setting [10]) was below 30%.
`COc1cncc(C2=CC=C3[C@@H]4CCC5=CC(=O)NCC[C@]5(C)[C@H]4CC[C@]23C)c1` [Compound 86, (5aR,7aS)-8-(5-methoxypyridin-3-yl)-5a,7a-dimethyl-4,5,5a,5b,6,7,7a,10b,11,12-decahydrocyclopenta[5,6]naphtho[2,1-c]azepin-3(2H)-one]: the pIC50 in series [1] (setting [11]) is above 7.96. In addition, the inhibition at 0.01 µM in series [2] (setting [12]) is 50 to 80%. In addition, in series [3] (setting [13]), the inhibition at 0.1 µM was at least 30%.
`Cc1cncc(C2=CC=C3[C@@H]4CCC5=CC(=O)N(C)CC[C@]5(C)[C@H]4CC[C@]23C)c1` [Compound 160]: the inhibition at 0.01 µM in series [2] (setting [12]) lay in the range of 50 to 80%. Moreover, the inhibition at 0.1 µM in series [3] (setting [13]) is below 30%.
In the case of `C[C@]12CCC(=O)C=C1CCC1C2CC[C@]2(C)C(c3cccnc3)=CCC12` (stereo partly drawn) [B, (10R,13S)-10,13-dimethyl-17-(pyridin-3-yl)-6,7,8,9,10,11,12,13,14,15-decahydro-1H-cyclopenta[a]phenanthren-3(2H)-one, reference compound], the inhibition at 0.1 µM in series [3] (setting [13]) was at least 30%. In addition, the inhibition at 0.001 µM in series [4] (1 nM compound, DHEA by ELISA, read-out: Biological Example No. 12: CYP17 percent inhibition at 1 nM) is above 50%.
Regarding `C[C@]12CCC3C(CCC4=CC(=NO)CC[C@@]43C)C1=CC=C2c1cccnc1` (stereo partly drawn) [Compound 288, (10R,13S)-10,13-dimethyl-17-(pyridin-3-yl)-6,7,8,9,10,11,12,13-octahydro-1H-cyclopenta[a]phenanthren-3(2H)-one oxime], the negative logarithm of the IC50 (pIC50) in series [1] (setting [6]) was above 7.96. In addition, the inhibition at 0.1 µM in series [3] (setting [7]) is below 30%. Further, the inhibition at 0.001 µM in series [4] (setting [8]) is above 50%. This molecule also yielded a half-life at 1 μM in series [5] of 1 to 50 min.
On to `C[C@]12CCCC(=O)CC1=CC[C@@H]1[C@@H]2CC[C@]2(C)C(c3cnccn3)=CC[C@@H]12` [Compound 142, 10a,12a-dimethyl-1-(pyrazin-2-yl)-3,3a,3b,4,8,9,10,10a,10b,11,12,12a-dodecahydrocyclohepta[a]cyclopenta[f]naphthalen-7(6H)-one], for which, in series [2] (setting [12]), the inhibition at 0.01 µM is above 80%. Further, the inhibition at 0.1 µM in series [3] (setting [13]) is at least 30%. In series [5], this molecule gave a half-life at 1 μM of 1 to 50 min.
Consider `Cc1cncc(C2=CC[C@H]3[C@@H]4CCC5=CC(=O)N(C)CC[C@]5(C)[C@H]4CC[C@]23C)c1` [Compound 54], for which, in series [1] (setting [11]), the pIC50 is above 7.96. For the same molecule, the inhibition at 0.01 µM in series [2] (setting [12]) lay in the range of 50 to 80%. Also, the inhibition at 0.1 µM in series [3] (setting [13]) was below 30%.
Consider `CCc1cncc(C2=CC[C@H]3[C@@H]4CCC5=CC(=O)N(C)CC[C@]5(C)[C@H]4CC[C@]23C)c1` [Compound 145], for which the inhibition at 0.01 µM in series [2] (setting [12]) is 50 to 80%. Moreover, the inhibition at 0.1 µM in series [3] (setting [13]) was at least 30%.

For orientation: pIC50 means the negative decadic logarithm of the IC50, by convention in mol/L. As a reminder, the inhibition is how much of the control response was suppressed. In general, half-life refers to the time needed for the level to fall by half in the phase considered. Read a low half-life as rapid decline.
